Assay results from patent US6448283B1, “Methods for preventing/treating damage to sensory hair cells and cochlear neurons” (Cephalon, Inc., priority 1998, dated 2002).
Values belong to the molecule of their own block, whether it stands above or below them.

How the values were obtained:
[1] = system: outer hair cells in organotypic cultures of the neonatal organ of Corti; assay: Hair cell counts in neomycin-exposed cochlear explant cultures; assay type: cell-based, rat
Protocol: (§1) The basal half of cochleas containing the basal and middle turns were dissected from postnatal day 2 Wistar rats. The cultures were maintained on Nuclepore filters (pore size […]; Pleasanton, Calif.) placed on a metal grid in F12 medium (Life Technologies, Gaithersburg, Md.) containing 15% fetal bovine serum (Life Technologies). After a 2-hour-long stabilization period, explants were exposed to 100 mM neomycin sulfate (Sigma, St Louis, Mo.) for 48 hr.
(§2) Explants were fixed with 4% paraformaldehyde/0.5% glutaraldehyde in phosphate buffered saline (PBS), pH 7.4, for 30 min and dissected for surface preparations. They were stained with a 1:100 dilution of rhodamine-phalloidin in PBS containing 0.25% Triton X-l 00 overnight at 4° C. and mounted in Vectashield (Vector). Outer hair cell (OHC) numbers were quantified with a Zeiss Axiovert 100/135 epifluorescent microscope (Germany) connected to a Bio-Rad MRC-1024 confocal laser scanning system (Richmond, Calif.). Hair cells were characterized as missing if no stereocilia and cuticular plate were observed. Numbers of OHCs were evaluated using a 40×objective lens and an ocular grid. Nine to 1 fields filled by 30 OHCs in each of the 3 rows (when all of them were present) were studied from each explant. Basal and middle coils were analyzed separately. Three separate experiments, each including 4 explants of both conditions (neomycin and neomycin plus Formula II) were analyzed.
as §1, with “μM” for “mM”, “hr. The compounds of Formula I and the compound of Formula I were added at 500 nM at the time of initiation of the cultures and every 12 hr thereafter. Neomycin plus vehicle was used as a control.” for “hr.”
as §2, with “X-100” for “X-l 00”, “40x objective” for “40×objective”, “Several” for “Nine to 1”, “separately.” for “separately. Three separate experiments, each including 4 explants of both conditions (neomycin and neomycin plus Formula II) were analyzed.”

[2] = system: cochlear ganglion neurons; conditions: Ylikoski et al., 1998; cited from earlier work
[3] = 100 mM neomycin (so in the source) alone for 48 hr, n=12

Molecule: O=C1NC(=O)c2c1c1c(c3[nH]c4ccccc4c23)Cc2ccccc2-1 [Example 8, 6H,12H,13H-Indeno[2,3-a]pyrrolo[3,4-c]carbazole-5,7(5H, 7H)-dione]
- viability at 0.5 µM ([1]; Rattus norvegicus, 48 h, compound 500 nM plus 100 μM neomycin 48 hr, NEO = neomycin plus vehicle, each line a separate count, read-out: % preserved): 21%

Molecule: NGF: nerve growth factor, negative control in cochlear neuron cultures
- survival of dissociated cochlear neurons of the perinatal rat [2]: does not have any effect or its effect is very weak

- OHCs in the basal turn lost [1, 3]: Approximately 90%
- OHCs in the middle turn lost [1, 3]: ~25%
Molecule: neomycin sulfate [reference compound]

B1: NT-3: neurotrophic factor, positive comparator in cochlear neuron cultures (protein, UniProt P20783 139-257, looked up)
Neurotrophin-3: YAEHKSHRGEYSVCDSESLWVTDKSSAIDIRGHQVTVLGEIKTGNSPVKQYFYETRCKEARPVKNGCRGIDDKHWNSQCKTSQTYVRALTSENNKLVGWRWIRIDTSCVCALSRKIGRT
- survival of dissociated cochlear neurons of the perinatal rat [2]: most potent neurotrophic factor promoting survival
